Measured values reported in patent publication US11737459B2, “Use of nootkatone to kill sap-sucking insects” (EVOLVA SA, priority 2016, dated 2023).
Where “and” joins values, the source holds several entries; their conditions need not be identical. Equal entries are not always repeated. Where two headings read alike, the source gives them in different places.

How the values were obtained:
[1] = system: Red flour beetle (Tribolium castaneum); assay: Laboratory filter-paper bioassay, red flour beetles exposed to nootkatone; assay type: in vivo; set-up: unit not given here; conditions: 1% v/v nootkatone on filter paper
Source text: (§1) This example describes a laboratory bioassay in which groups of house flies and red flour beetles were exposed to a nootkatone-containing composition to determine their susceptibilities to low concentrations of nootkatone.
(§2) One milliliter of a 1% v/v nootkatone in ethanol was applied directly to 9 cm filter paper discs using a micropipette. The filter papers were allowed to dry completely and cut to the appropriate size prior to the start of the test. A negative control group (consisting of untreated replicates—ethanol only) was also assessed for comparative purposes.
(§3) Treated and untreated filter papers were cut so that they covered the bottom of a suitable container for each test species as follows:
Flour beetles—Five replicates of 10 insects were tested. A Petri dish lid 3.54 inches (9 cm) in diameter was inverted and served as the substrate for a 2.75 inch (7 cm) treated filter paper circle. The small Petri dish bottom was inverted over the paper and had its sides treated with Fluon (or similar) to prevent climbing and force exposure with the filter paper. The entire Petri dish was enclosed with two rubber bands.
(§4) Readings were discontinued if treated mortality reached 100%, or control mortality exceeded 20%.

[2] = system: House fly (Musca domestica); assay: Laboratory filter-paper bioassay, house flies exposed to nootkatone; assay type: in vivo; set-up: key to Dead, Means: % mortality of insects (treated mortality up to 100%); KD, Means / Affected, Means: unit not given here; conditions: 1% v/v nootkatone on filter paper
Source text: as §1, §2, §3
Flies—Five replicates of 10 insects were tested. Inverted 10 ounce (295 mL) clear plastic cups with a 0.5 inch (1.27 cm) hole burned into the center of the bottom, and with the sides coated with Fluon (or similar) were used as the treatment containers. The bottoms of the containers consisted of Petri dish lids 3.54 inches ([…]) in diameter lined with a treated filter paper circle the same diameter. The cup was placed over the filter paper in the lid and both were secured in place using 2 rubber bands. The insects were introduced through the hole in the cup, and a plastic disc was placed over the opening to prevent escapes.
as §4

[3] = system: Aphid (Schizaphis gramium); assay: Laboratory filter-paper bioassay of aphid susceptibility to nootkatone; assay type: in vivo; conditions: 1% v/v nootkatone in ethanol on filter paper, 24 hours post introduction
Source text: This example describes a laboratory bioassay in which groups of aphids were exposed to a nootkatone-containing composition to determine aphid susceptibility to nootkatone.
One milliliter of a 1% v/v nootkatone in ethanol was applied directly to 9 cm filter paper discs using a micropipette. The filter papers were allowed to dry completely and cut to the appropriate size prior to the start of the test. Pure ethanol was used as a control.
Treated and untreated filter papers were cut into 2.5 inch (6.35 cm) squares and folded into envelopes to serve as containers for the test. Five replicates of 10 aphids were tested per treatment. After the aphids were placed inside, the openings were sealed using clips so that the aphids could not escape.
Aphids were observed after 24 hours post-introduction to the test containers.
as §4

[4] = system: honey bee (Apis mellifera); conditions: for 48-hour Mortality (%), replicates A-C: individual replicates
Procedure: A negative control group and a solvent control group were maintained concurrently. Three replicate test chambers were maintained in each control and treatment group, with 10 bees in each test chamber. […] The positive control test was conducted concurrently with the definitive test. […] OECD Guidelines for Testing of Chemicals. […] The cumulative mortality observed in the test groups was used to determine the LD50, LOEC, and NOEC.
The primary stock served as a dosing solution for the highest concentration (100 μg a.i./bee). […] Prior to dosing, young adult bees were removed from the frames, distributed into holding containers, and returned to the holding incubator. Approximately 50 bees were impartially placed in each of eight containers in preparation for use in the various treatment and control groups as needed during the dosing procedure.
The test chambers were stainless steel cylinders measuring approximately 9 cm in diameter and 9 cm high, with perforations for ventilation. Each end of the test chamber was covered with a disposable plastic petri dish (approximately 10 cm in diameter), and the bottom petri dish was lined with filter paper. An inverted glass vial containing approximately 10 mL of 50% (w/v) sucrose solution was inserted through the lid of the chamber. The opening of the vial was covered with gauze, which prevented leakage allowing the bees to feed ad libitum throughout the test period. The test chambers were identified by study number, dosage group, and replicate.
Prior to dosing, the bees in each holding container were immobilized with nitrogen. While anesthetized, bees were individually dosed with the appropriate dosing solution. Bees in the test substance, positive control, and solvent control groups were dosed by administering a 4 μL droplet of the appropriate dosing solution to the dorsal side of the thorax of each bee with an adjustable micropipette. Ten bees were impartially placed in each test chamber. Bees in the positive control treatment group were handled and dosed in the same manner. Solvent control bees were dosed with acetone. Negative control bees were not dosed but were handled identically to the treated bees. After dosing, test chambers were distributed into a testing incubator by indiscriminate draw.
The bees were maintained in continuous darkness during the test except during periods of dosing and observations.
The bees were observed and counted periodically to evaluate mortality and signs of toxicity or abnormal behavior.
The negative control group was used for comparison with the treatment groups.

C=C(C)[C@@H]1CCC2=CC(=O)C[C@@H](C)[C@]2(C)C1 [Nootkatone, nootkatone]
Affected, Means ([1]; 30 minutes post introduction): 0.0
Dead, Means ([1]; 30 minutes post introduction): 0.0
KD, Means ([1]; 30 minutes post introduction): 0.0
Affected, Means ([1]; 1 hour post introduction): 0.0
Dead, Means ([1]; 1 hour post introduction): 0.0
KD, Means ([1]; 1 hour post introduction): 0.0
Affected, Means ([1]; 4 hours post introduction): 0.0
Dead, Means ([1]; 4 hours post introduction): 0.0
KD, Means ([1]; 4 hours post introduction): 0.0
Affected, Means ([1]; 24 hours post introduction): 4.2
Dead, Means ([1]; 24 hours post introduction): 0.0
KD, Means ([1]; 24 hours post introduction): 4.2
Affected, Means ([1]; 48 hours post introduction): 6.4
Dead, Means ([1]; 48 hours post introduction): 6.4
KD, Means ([1]; 48 hours post introduction): 0.0
Affected, Means ([1]; 72 hours post introduction): 10.9
Dead, Means ([1]; 72 hours post introduction): 10.9
KD, Means ([1]; 72 hours post introduction): 0.0
Affected, Means ([2]; 30 minutes post introduction): 0.0
Dead, Means ([2]; 30 minutes post introduction): 0.0
KD, Means ([2]; 30 minutes post introduction): 0.0
Affected, Means ([2]; 1 hour post introduction): 0.0
Dead, Means ([2]; 1 hour post introduction): 0.0
KD, Means ([2]; 1 hour post introduction): 0.0
Affected, Means ([2]; 4 hours post introduction): 0.0
Dead, Means ([2]; 4 hours post introduction): 0.0
KD, Means ([2]; 4 hours post introduction): 0.0
Affected, Means ([2]; 24 hours post introduction): 14.0
Dead, Means ([2]; 24 hours post introduction): 2.0
KD, Means ([2]; 24 hours post introduction): 12.0
Affected, Means ([2]; 48 hours post introduction): 28.0
Dead, Means ([2]; 48 hours post introduction): 28.0
KD, Means ([2]; 48 hours post introduction): 0.0
Affected, Means ([2]; 72 hours post introduction): 44.0
Dead, Means ([2]; 72 hours post introduction): 42.0
KD, Means ([2]; 72 hours post introduction): 2.0
Affected, Means [3]: 100.0%
Dead, Means [3]: 94.0%
KD (knockdown), Means [3]: 6.0%
Dead, Means ([3]; listed as nootkatone): 94%
KD (knockdown), Means ([3]; listed as nootkatone): 6%
48-hour Mortality Mean (%) ([4]; 6.25 μg a.i./bee topical): 10%
48-hour Mortality (%), replicates A-C ([4]; 6.25 μg a.i./bee topical): 0% and 10% and 20%
48-hour Mortality Mean (%) ([4]; 12.5 μg a.i./bee topical): 10%
48-hour Mortality (%), replicates A-C ([4]; 12.5 μg a.i./bee topical): 0% and 10% and 20%
48-hour Mortality Mean (%) ([4]; 25 μg a.i./bee topical): 0%
48-hour Mortality (%), replicates A-C ([4]; 25 μg a.i./bee topical): 0%
48-hour Mortality Mean (%) ([4]; 50 μg a.i./bee topical): 3.3%
48-hour Mortality (%), replicates A-C ([4]; 50 μg a.i./bee topical): 0% (2×) and 10%
48-hour Mortality Mean (%) ([4]; 100 μg a.i./bee topical): 13.3%
48-hour Mortality (%), replicates A-C ([4]; 100 μg a.i./bee topical): 10% (2×) and 20%
NOEC (No Observable Effect Concentration) ([4]; 48-hour mortality, highest concentration tested): 100 μg a.i./bee
Mortality in the treatment groups at the end of the test ([4]; all doses 6.25 to 100 μg a.i./bee, 48 hours, listed as Nootkatone 98%): less than 50%
